Laboratory results as given in patent US5512269A, “Method of treating retained pulmonary secretions” (priority 1993, dated 1996).

Columns and labels:
[1] = test system: sheep airway surface liquid; conditions: sheep model, W. Mentz et al.; cited from earlier work
[2] = test system: Mycobacterium tuberculosis drug sensitive laboratory strain; format: cell-based; conditions: for susceptibility of drug-sensitive laboratory strain to drug: streptomycin 6 μg/ml, isoniazid 0.2 μg/ml, rifampin 2 μg/ml, ethambutol 7.5 μg/ml
[3] = test system: Mycobacterium tuberculosis 57778; format: cell-based; conditions: for susceptibility of strain 57778 to drug: streptomycin 6 μg/ml, isoniazid 0.2 μg/ml, rifampin 2 μg/ml, ethambutol 7.5 μg/ml
[4] = test system: Mycobacterium tuberculosis 65021; format: cell-based; conditions: for susceptibility of strain 65021 to drug: streptomycin 6 μg/ml, isoniazid 0.2 μg/ml, rifampin 2 μg/ml, ethambutol 7.5 μg/ml
[5] = test system: Mycobacterium tuberculosis 63169; format: cell-based; conditions: for susceptibility of strain 63169 to drug: streptomycin 6 μg/ml, isoniazid 0.2 μg/ml, rifampin 2 μg/ml, ethambutol 7.5 μg/ml
[6] = test system: normal airway epithelium; test: Ussing chamber short circuit current (Isc) Cl- secretory response, normal airway epithelium primary cultures; format: cell-based, human
[7] = test system: canine trachea airway surface liquid; conditions: dog
Protocol: 1. The Animal Model: The model developed employed 30 kg male dogs that were anesthetized with intravenous pentobarbital and maintained on a intravenous infusion of normal saline at 75 cc/hour. The dogs were intubated. Ventilatory support was provided by a Harvard™ piston pump. Adequate ventilation and oxygenation were documented by arterial blood gas studies. Peak airway pressures (PAP) were measured and continuous monitoring of hemoglobin saturation was accomplished by pulse oximetry.
Drug and vehicle were delivered through the endotracheal tube. The drug was nebulized employing a Pulmo-Aid™ Compressor and a DeVilbiss™ nebulizer. The drug (50 μM; 3 ml) in a saline vehicle or the saline vehicle alone (control) was nebulized for 6 minutes during which 0.7 ml thereof was delivered to the animal. […] After 6 minutes, a clean and dry nebulizer was exchanged for the test nebulizer containing the drug or vehicle. The investigators were blinded as to whether drug or vehicle was given.
2. Measurements of airway fluid: Airway liquid measurements were made by applying dry preweighed filter paper to the cartilaginous portions of the airway for 20 seconds. This was accomplished employing transbronchial biopsy forceps to grasp the papers. The forceps and papers were stored in plastic catheters. Sampling the airway liquid was accomplished by first inserting the bronchoscope through the endotracheal tube. Care was taken not to allow contact between mucosa and the bronchoscope. The catheter containing the biopsy forceps and filter papers was introduced into the airway lumen through the channel in the bronchoscope. The biopsy forceps were then pushed out of the catheter and the filter papers gently applied to the mucosa. After 20 seconds the biopsy forceps and filter papers were pulled back into the catheter and removed through the bronchoscope for weighing. The filter papers were accessed for weighing by again pushing the forceps holding the filter paper out of the catheter. In order to account for evaporative losses from the filter papers when exposed to room air, the time required to place the papers on the scales and perform the initial weighing was recorded. Three subsequent weighings over time were then made. A regression line was calculated. The weight of the filter papers at time zero, that is when they were maximally wet, was defined as the time when the filter papers were pushed out of the catheter after having been applied to the airway mucosa. The amount of fluid on the filter paper was taken as the difference between the dry weight of the papers and their weight at time zero. Each set of samples to be compared were further corrected for differences in the initial weight of the dry filter papers.
The goal of the first protocol was to study the effects on airway surfaces liquid of (1) repeatedly sampling the airway, and (2) nebulizing the normal saline vehicle.
Protocol 1 required, immediately prior to conducting the test studies, weighing and loading the filter papers into catheters. Ten separate catheter-forceps-filter paper set-ups were available. Ten measurements of airway liquid were then made in different areas of the trachea over a thirty-minute period, with measurements made at three minute intervals. The catheters were then reloaded and the saline vehicle nebulized onto the airway. Ten more measurements of airway surface liquid were then made over another thirty minute period.
Protocol 2 required sampling the airway every four minutes to obtain 30 measurements of airway liquid. This required reloading the 10 catheters twice during each experiment. Each reloading required 20 minutes. This protocol allowed the airway to be sampled over 160 minutes. Drug and vehicle administration were separated by one week in any one animal.

[8] = test system: CF airway epithelium; conditions: 10^-6 M
Excerpt: 1. Ussing Chamber Studies: The Cl^- secretory response to stimulation of normal and CF airway epithelium was studied under short circuit (Isc) conditions employing tissues mounted in Ussing chambers. Ussing chambers are well known in the art and the manner of their use in the present example would be readily apparent to one skilled in the art.

[9] = test system: CFT43 cell line (phospholipase C, inositol phosphates); conditions: CFT43 cells, duramycin stimulation
Excerpt: (§1) 4. Mechanisms of Action: Preliminary studies were also done investigating possible mechanisms of action.

[10] = test system: CFT43 cell line (intracellular cAMP); conditions: CFT43 cells, duramycin stimulation
Excerpt: as §1

N=C(N)NC(=O)c1nc(Cl)c(N)nc1N [amiloride]
increase in airway fluid after amiloride treatment [1]: ~50%

NNC(=O)c1ccncc1 [isoniazid]
susceptibility of drug-sensitive laboratory strain to drug [2]: sensitive
susceptibility of strain 57778 to drug [3]: resistant
susceptibility of strain 65021 to drug [4]: resistant
susceptibility of strain 63169 to drug [5]: resistant

CO[C@H]1/C=C/O[C@@]2(C)Oc3c(C)c(O)c4c(O)c(c(/C=N/N5CCN(C)CC5)c(O)c4c3C2=O)NC(=O)/C(C)=C\C=C\[C@H](C)[C@H](O)[C@@H](C)[C@@H](O)[C@@H](C)[C@H](OC(C)=O)[C@@H]1C [rifampin]
susceptibility of drug-sensitive laboratory strain to drug [2]: sensitive
susceptibility of strain 57778 to drug [3]: resistant
susceptibility of strain 65021 to drug [4]: resistant
susceptibility of strain 63169 to drug [5]: resistant

[H]/N=C(/N)N[C@H]1[C@H](O)[C@@H](O)[C@H](O[C@@H]2O[C@@H](C)[C@](O)(C=O)[C@H]2O[C@@H]2O[C@@H](CO)[C@H](O)[C@@H](O)[C@@H]2NC)[C@@H](N/C(N)=N\[H])[C@@H]1O [streptomycin]
susceptibility of drug-sensitive laboratory strain to drug [2]: sensitive
susceptibility of strain 57778 to drug [3]: resistant
susceptibility of strain 65021 to drug [4]: resistant
susceptibility of strain 63169 to drug [5]: sensitive

Nc1ncnc2c1ncn2[C@@H]1O[C@H](COP(=O)(O)OP(=O)(O)OP(=O)(O)O)[C@@H](O)[C@H]1O [ATP, reference compound]
time course of Cl- secretory response (Isc) ([6]; comparison agonist): rapid onset of action and a rapid return to the baseline current

CC[C@@H](CO)NCCN[C@@H](CC)CO [ethambutol]
susceptibility of drug-sensitive laboratory strain to drug [2]: sensitive
susceptibility of strain 57778 to drug [3]: sensitive
susceptibility of strain 65021 to drug [4]: partially resistant
susceptibility of strain 63169 to drug [5]: sensitive

duramycin
activity on growth (growth index over 12 days), drug-sensitive laboratory strain ([2]; 100 μM duramycin): less active in vitro than streptomycin, isoniazid, rifampin, or ethambutol
activity on growth (growth index over 12 days), strain 57778 ([3]; 100 μM duramycin): equally as effective as ethambutol
increase in amount of fluid recovered over baseline, Protocol 2 ([7]; 160 minutes, vehicle first then duramycin one week later): several-fold increase
return of airway surface liquid to baseline ([7]; Protocol 1): did not return to baseline even two hours following its administration
surface airway liquid after vehicle one week following duramycin ([7]; Protocol 2, duramycin given first): remained elevated
amount of fluid recovered from the airway, Protocol 1 ([7]; nebulized duramycin, 30 minute measurement period): marked and sustained increase
increase in airway surface liquid recovered compared to vehicle controls ([7]; vehicle first, p=0.0179 (paired), p=0.0335 (unpaired), n=6): significant
average change in amount of fluid recovered ([7]; versus vehicle): doubling
peak Isc (Cl- current) after duramycin ([6]; 10^-6 M duramycin, normal tissues after amiloride and forskolin (10 μM), baseline 20 μA/cm^2 after amiloride): 50 μA/cm^2
Cl- secretory response in normal tissue ([6]; 10^-6 M, seven normal tissues): significant Cl^- secretory response
Isc response to duramycin, control bathing solution ([6]; 10^-6 M, solution containing both Na+ and Cl-): responded by increasing the Isc
Isc response to duramycin, Cl- free bathing solution ([6]; 10^-6 M, solution without Cl-): markedly attenuated response
Isc response to duramycin, Na+ free bathing solution ([6]; 10^-6 M, solution without Na+): responded by increasing the Isc
concentration giving maximal response ([6]; dose response study): 10^-6 M
ED50 ([6]; dose response study, Isc response): 0.3 µM
duration of increase in Isc (Cl- secretory response) ([6]; in some instances): > 1 h
activity on growth (growth index over 12 days), strain 65021 ([4]; 100 μM duramycin): significantly more activity against this strain than any of the four traditional anti-tuberculosis drugs tested
activity on growth (growth index over 12 days), strain 63169 ([5]; 100 μM duramycin): approximately equal to that of the two drugs now known to be effective against this strain
Cl- secretory response (change in Isc) in CF tissue relative to normal tissue [8]: approximately twice
Cl- secretory response in CF tissue ([8]; five CF tissues): significant Cl^- secretory response
inositol phosphates (IPs) produced [9]: no detectable amounts of IPs
intracellular cAMP levels [10]: did not cause intracellular cAMP levels to rise
